Results from patent US11938228B2, “Particle-based multi-layer therapeutic delivery device and method” (Privo Technologies, Inc., priority 2017, dated 2024).

Columns and labels:
[1] = release profile of encapsulated agent from chitosan particles (atomic absorption spectrometry); format: physicochemical; conditions: over 60 hours; particles with average diameter 500 to 2000 nm; detection by AAS
From the text: FIG. 1 is a graph showing the release profile of one embodiment of particles having an average diameter in the range of 500 to 2000 nm which may be included within a multi-layered device according to embodiments of the present invention. […] Cisplatin was used for this experiment due to its use in the treatment of oral cancer and its ease of detection via atomic absorption spectrometry (AAS).
FIG. 1 is a graph showing the release profile of example particles having an average diameter in the range of 500 to 2000 nm. […] Cisplatin was used for this experiment due to its use in the treatment of oral cancer and its ease of detection via atomic absorption spectrometry (AAS).

[2] = permeation of fluorescent dye from two-layer device into buccal tissue (fluorescence microscopy); format: in vitro ADME; conditions: lamb buccal tissue, multi-layer device
From the text: FIG. 2 is an image of an example multi-layered device according to example embodiments of the present invention. The device features two layers: one top layer including fluorescein isothiocyanate (FITC), a fluorescent dye which fluoresces green when examined under a fluorescent microscope, and one bottom layer including cyanine 5 (Cy5), a fluorescent dye which fluoresces red when examined under a fluorescent microscope.
FIGS. 5A-5C show three images taken from lamb buccal tissue at different time points.
In another representative embodiment, a multi-layered device may be used for the delivery of multiple agents over a prolonged period of time (FIG. 4, FIG. 5). If the example of mucositis is again used, multiple layers may include a pain mitigator in free form, a pain mitigator encapsulated within particles and an agent for the treatment of mucositis encapsulated within particles. The initial freeform layer is able to provide immediate pain relief, and the subsequent particle-encapsulated layers are capable of delivering particles beneath the tissue, where they further release their agents over a period of days, providing longer-term pain relief and treatment. FIG. 4 and FIG. 5 illustrate this effect. Fluorescence was used in order to provide detection. […]

Molecule | cisplatin released from particles [1] [%] | permeation into tissue ([2]; after 30 minutes) | permeation into tissue ([2]; after 1 hour)
N.N.[Cl][Pt][Cl] [cisplatin] | 45 |  | 
fluorescein isothiocyanate [FITC] |  | beginning to permeate the tissue | permeating deeper into the tissue
